Measured values taken from ChEMBL document CHEMBL4351030, “Synthesis and biological evaluation of 3-carbamate smilagenin derivatives as potential neuroprotective agents” (2019).
The source made the active and inactive calls. The calls are words filed in the database; no cut-off is given here.

Experiments:
SH-SY5Y [1] = experiment: Neuroprotective activity against H2O2-induced oxidative stress in human SH-SY5Y cells assessed as cell viability at 10 uM preincubated for 2 hrs followed by H2O2 stimulation for 30 mins followed by further incubation for 24 hrs by MTT assay relative to control; type: functional; conditions: for viability at 10 µM: read-out: Activity
RAW264.7 = experiment: Neuroprotective activity against LPS-induced oxidative stress in mouse RAW264.7 cells assessed as reduction in NO production at 10 uM preincubated for 30 mins followed by LPS stimulation for 20 hrs by Griess reagent based microplate reader assay relative to control; type: functional
SH-SY5Y [2] = experiment: Neuroprotective activity against H2O2-induced oxidative stress in human SH-SY5Y cells assessed as cell viability at 1 mM preincubated for 2 hrs followed by H2O2 stimulation for 30 mins followed by further incubation for 24 hrs by MTT assay relative to control; type: functional; conditions: read-out: Activity
SH-SY5Y [3] = experiment: Neuroprotective activity against oxygen-glucose deprivation-induced cell damage in human SH-SY5Y cells assessed as increase in cell viability measured after 5.5 hrs of post OGD challenge by MTT assay; type: functional, cell-based

SMILES | viability at 10 µM (SH-SY5Y [1]) [%] | inhibition at 10 µM (RAW264.7) [%] | further results
Cc1ccc(CNC(=O)O[C@H]2CC[C@@]3(C)[C@H](CC[C@@H]4[C@@H]3CC[C@]3(C)[C@@H]5[C@H](C[C@@H]43)O[C@]3(CC[C@@H](C)CO3)[C@H]5C)C2)cc1 | 29.2 | 6.8 | –
COc1ccc(CNC(=O)O[C@H]2CC[C@@]3(C)[C@H](CC[C@@H]4[C@@H]3CC[C@]3(C)[C@@H]5[C@H](C[C@@H]43)O[C@]3(CC[C@@H](C)CO3)[C@H]5C)C2)cc1 | 17.9 | 9.2 | –
COc1ccc(CN2CCN(C(=O)O[C@H]3CC[C@@]4(C)[C@H](CC[C@@H]5[C@@H]4CC[C@]4(C)[C@@H]6[C@H](C[C@@H]54)O[C@]4(CC[C@@H](C)CO4)[C@H]6C)C3)CC2)cc1 | 4.8 | – | –
C[C@@H]1CC[C@@]2(OC1)O[C@H]1C[C@H]3[C@@H]4CC[C@@H]5C[C@@H](OC(=O)NCc6ccccc6)CC[C@]5(C)[C@H]4CC[C@]3(C)[C@H]1[C@@H]2C | 5.8 | – | –
CC(=O)N[C@@H](CS)C(=O)O [ACETYLCYSTEINE] | – | – | viability at 1000 µM (SH-SY5Y [2]): 37.1%
C[C@@H]1CC[C@@]2(OC1)O[C@H]1C[C@H]3[C@@H]4CC[C@@H]5C[C@@H](O)CC[C@]5(C)[C@H]4CC[C@]3(C)[C@H]1[C@@H]2C | 3.5 | – | –
C[C@@H]1CC[C@@]2(OC1)O[C@H]1C[C@H]3[C@@H]4CC[C@@H]5C[C@@H](OC(=O)N6CCN(Cc7ccc(C#N)cc7)CC6)CC[C@]5(C)[C@H]4CC[C@]3(C)[C@H]1[C@@H]2C | 40.5 | 23.5 | Activity (SH-SY5Y [3]): Active
COc1cc(CN2CCN(C(=O)O[C@H]3CC[C@@]4(C)[C@H](CC[C@@H]5[C@@H]4CC[C@]4(C)[C@@H]6[C@H](C[C@@H]54)O[C@]4(CC[C@@H](C)CO4)[C@H]6C)C3)CC2)ccc1O | 10.3 | – | –
C[C@@H]1CC[C@@]2(OC1)O[C@H]1C[C@H]3[C@@H]4CC[C@@H]5C[C@@H](OC(=O)N6CCN(CCO)CC6)CC[C@]5(C)[C@H]4CC[C@]3(C)[C@H]1[C@@H]2C | – | – | Activity (SH-SY5Y [1]): inactive
C[C@@H]1CC[C@@]2(OC1)O[C@H]1C[C@H]3[C@@H]4CC[C@@H]5C[C@@H](OC(=O)N6CCN(C)CC6)CC[C@]5(C)[C@H]4CC[C@]3(C)[C@H]1[C@@H]2C | – | – | Activity (SH-SY5Y [1]): inactive
C[C@@H]1CC[C@@]2(OC1)O[C@H]1C[C@H]3[C@@H]4CC[C@@H]5C[C@@H](OC(=O)N6CCN(Cc7ccc(Cl)cc7)CC6)CC[C@]5(C)[C@H]4CC[C@]3(C)[C@H]1[C@@H]2C | 34.8 | 15.2 | Activity (SH-SY5Y [3]): Active
C[C@@H]1CC[C@@]2(OC1)O[C@H]1C[C@H]3[C@@H]4CC[C@@H]5C[C@@H](OC(=O)N6CCN(Cc7ccccc7)CC6)CC[C@]5(C)[C@H]4CC[C@]3(C)[C@H]1[C@@H]2C | 36.9 | 18.3 | Activity (SH-SY5Y [3]): Active
C[C@@H]1CC[C@@]2(OC1)O[C@H]1C[C@H]3[C@@H]4CC[C@@H]5C[C@@H](OC(=O)NCc6ccc(Cl)cc6)CC[C@]5(C)[C@H]4CC[C@]3(C)[C@H]1[C@@H]2C | 45.5 | 17.6 | Activity (SH-SY5Y [3]): Active
C[C@@H]1CC[C@@]2(OC1)O[C@H]1C[C@H]3[C@@H]4CC[C@@H]5C[C@@H](OC(=O)N6CCN(Cc7ccccc7O)CC6)CC[C@]5(C)[C@H]4CC[C@]3(C)[C@H]1[C@@H]2C | 38.4 | 7.02 | –
C[C@@H]1CC[C@@]2(OC1)O[C@H]1C[C@H]3[C@@H]4CC[C@@H]5C[C@@H](OC(=O)N(C)C)CC[C@]5(C)[C@H]4CC[C@]3(C)[C@H]1[C@@H]2C | 6.3 | – | –
CC(C)CNC(=O)O[C@H]1CC[C@@]2(C)[C@H](CC[C@@H]3[C@@H]2CC[C@]2(C)[C@@H]4[C@H](C[C@@H]32)O[C@]2(CC[C@@H](C)CO2)[C@H]4C)C1 | 9.2 | – | –
